Laboratory results published in patent US20120122848A1, “(+)-3-HYDROXYMORPHINAN DERIVATIVES AS NEUROPROTECTANTS” (GREEN CROSS CORPORATION, priority 2009, published 2012).
Where a name gives a salt, the structure may show the parent alone.

Columns and labels:
[1] = Cell cytotoxicity test: protection of HT22 cells against glutamate toxicity (EC50) and cytotoxicity of the compounds (CC50), MTT; format: cell-based, mouse; conditions: mouse, HT22 cells (mouse hippocampal neuron)
Procedure: (§1) HT22 cells (mouse hippocampal neuron, Salk Institute and KRIBB) were plated in a 96-well plate at a density of 3×10^3 cells/well for 16 hrs before treatment. The cells were treated with five millimolar glutamate and various concentrations of the inventive compounds and incubated for 24 hrs in a growth media (DMEM with 10% FBS and 1% penicillin streptomycin). Then, the cells were treated with 3-(4,5-dimethylthiazol-2-yl)-2,5-diphenyltetrazolium bromide (MTT, Sigma®) for 4 hrs and absorbance of each well was measured with a plate reader at a wavelength of 450 nm. [Da-Qing, et. al., Anti-oxidant and anti-inflammatory activities of macelignan in murine hippocampal cell line and primary culture of rat microglia cells, BBRC, 2005, 331, 1264-1269].
(§2) In Table 1, EC50 is neuroprotective effect against glutamate toxicity and CC50 is cytotoxicity of the compounds. The EC50 values were statistically analyzed using Prizm® (GraphPad Software Inc., San Diego, Calif., USA).

[2] = system: HT22 cells (mouse hippocampal neuron); assay: as above; format: cell-based; conditions: Mus musculus, HT-22, five millimolar glutamate, 24 hrs, read-out: EC50 (neuroprotective effect against glutamate toxicity)
Procedure: as §1, §2

CCCN(CCC)c1cc2c(cc1O)[C@]13CCCC[C@@H]1[C@H](C2)NCC3 [Example 96, (+)-2-(Dipropylamino)-3-hydroxymorphinan TFA salt]
CC50 at 24 h [1]: 3490 nM | EC50 [2]: 178 nM

Oc1cc2c(cc1NC1CCCCC1)C[C@@H]1NCC[C@]23CCCC[C@H]13 [Example 93, (+)-2-Cyclohexylamino-3-hydroxymorphinan TFA salt]
CC50 at 24 h [1]: 13800 nM | EC50 [2]: 98.6 nM

Oc1cc2c(cc1Nc1ccccn1)C[C@@H]1NCC[C@]23CCCC[C@H]13 [Example 34, (+)-3-Hydroxy-2-(pyridin-2-ylamino)morphinan 2TFA salt]
CC50 at 24 h [1]: 41500 nM | EC50 [2]: 2340 nM

Oc1cc2c(cc1Nc1ccccc1-c1ccccc1)C[C@@H]1NCC[C@]23CCCC[C@H]13 [Example 60, (+)-2-(Biphenyl-2-ylamino)-3-hydroxymorphinan TFA salt]
CC50 at 24 h [1]: 1400 nM | EC50 [2]: 19 nM

CCCN(C)c1cc2c(cc1O)[C@]13CCCC[C@@H]1[C@H](C2)NCC3 [Example 102, (+)-3-Hydroxy-2-(methylpropylamino)morphinan TFA salt]
CC50 at 24 h [1]: 29600 nM | EC50 [2]: 548 nM

CCC(C)Nc1cc2c(cc1O)[C@]13CCCC[C@@H]1[C@H](C2)NCC3 (stereo partly drawn) [Example 95, (+)-2-(sec-Butylamino)-3-hydroxymorphinan TFA salt]
CC50 at 24 h [1]: 66400 nM | EC50 [2]: 131 nM

Oc1cc2c(cc1Nc1ccc3[nH]ncc3c1)C[C@@H]1NCC[C@]23CCCC[C@H]13 [Example 69, (+)-3-Hydroxy-2-((1H-indazol-5-yl)amino)morphinan TFA salt]
CC50 at 24 h [1]: 48000 nM | EC50 [2]: 1020 nM

Oc1cc2c(cc1Nc1cc(Cl)ccc1Cl)C[C@@H]1NCC[C@]23CCCC[C@H]13 [Example 64, (+)-2-(2,5-Dichlorophenylamino)-3-hydroxymorphinan TFA salt]
CC50 at 24 h [1]: 1900 nM | EC50 [2]: 464 nM

Oc1cc2c(cc1Nc1cccc3cnccc13)C[C@@H]1NCC[C@]23CCCC[C@H]13 [Example 67, TFA salt]
CC50 at 24 h [1]: 12500 nM | EC50 [2]: 107 nM

CS(=O)(=O)Nc1ccccc1Nc1c(O)cc2c(c1Cl)C[C@@H]1NCC[C@]23CCCC[C@H]13 [Example 133, (+)-1-Chloro-3-hydroxy-2-(2-(methanesulfonamido)phenylamino)morphinan TFA salt]
CC50 at 24 h [1]: 16500 nM | EC50 [2]: 256 nM

CSc1cc2c(cc1O)[C@]13CCCC[C@@H]1[C@H](C2)NCC3 [Example 72, (+)-3-Hydroxy-2-methylthiomorphinan TFA salt]
CC50 at 24 h [1]: 77300 nM | EC50 [2]: 2210 nM

Oc1cc2c(cc1Nc1c(O)cccc1O)C[C@@H]1NCC[C@]23CCCC[C@H]13 [Example 47, (+)-2-(2,6-Dihydroxyphenylamino)-3-hydroxymorphinan TFA salt]
CC50 at 24 h [1]: 9000 nM | EC50 [2]: 275 nM

Nc1ccc(Nc2cc3c(cc2O)[C@]24CCCC[C@@H]2[C@H](C3)NCC4)cc1 [Example 32, (+)-2-(4-Aminophenyamino)-3-hydroxymorphinan TFA salt]
CC50 at 24 h [1]: 14100 nM | EC50 [2]: 43.1 nM

CCN(CC)c1ccccc1Nc1cc2c(cc1O)[C@]13CCCC[C@@H]1[C@H](C2)NCC3 [Example 129, (+)-2-(2-(Diethylamino)phenylamino)-3-hydroxymorphinan TFA salt]
CC50 at 24 h [1]: 1600 nM | EC50 [2]: 43.9 nM

Oc1cc2c(cc1N1CCCCC1)C[C@@H]1NCC[C@]23CCCC[C@H]13 [Example 21, (+)-3-Hydroxy-2-(piperidin-1-yl)morphinan TFA salt]
CC50 at 24 h [1]: 63500 nM | EC50 [2]: 482 nM

CN(c1ccc(F)cc1)c1cc2c(cc1O)[C@]13CCCC[C@@H]1[C@H](C2)NCC3 [Example 124, (+)-2-(4-Fluorophenyl(methyl)amino)-3-hydroxymorphinan TFA salt]
CC50 at 24 h [1]: 6400 nM | EC50 [2]: 371 nM

CC(C)COC(=O)Nc1ccccc1Nc1cc2c(cc1O)[C@]13CCCC[C@@H]1[C@H](C2)NCC3 [Example 119, (+)-3-Hydroxy-2-(2-(isobutyloxycarbonylamino)phenylamino)morphinan TFA salt]
CC50 at 24 h [1]: 8700 nM | EC50 [2]: 211 nM

Cc1ccc(Nc2cc3c(cc2O)[C@]24CCCC[C@@H]2[C@H](C3)NCC4)cc1 [Example 28, (+)-3-Hydroxy-2-(4-methylphenylamino)morphinan TFA salt]
CC50 at 24 h [1]: 1840 nM | EC50 [2]: 32.5 nM

CS(=O)(=O)Nc1ccccc1Nc1cc2c(cc1O)[C@]13CCCC[C@@H]1[C@H](C2)NCC3 [Example 110, (+)-3-Hydroxy-2-(2-(methanesulfonamido)phenylamino)morphinan TFA salt]
CC50 at 24 h [1]: 7550 nM | EC50 [2]: 4.53 nM

CCOC(=O)Nc1ccccc1Nc1cc2c(cc1O)[C@]13CCCC[C@@H]1[C@H](C2)NCC3 [Example 117, (+)-2-(2-(Ethoxycarbonylamino)phenylamino)-3-hydroxymorphinan TFA salt]
CC50 at 24 h [1]: 36500 nM | EC50 [2]: 1080 nM

COC(=O)c1ccccc1Nc1cc2c(cc1O)[C@]13CCCC[C@@H]1[C@H](C2)NCC3 [Example 108, (+)-3-Hydroxy-2-(2-(methoxycarbonyl)phenylamino)morphinan TFA salt]
CC50 at 24 h [1]: > 100000 nM | EC50 [2]: 7960 nM

Oc1ccc(Nc2cc3c(cc2O)[C@]24CCCC[C@@H]2[C@H](C3)NCC4)c(O)c1 [Example 45, (+)-2-(2,4-Dihydroxyphenylamino)-3-hydroxymorphinan TFA salt]
CC50 at 24 h [1]: 40900 nM | EC50 [2]: 73.1 nM

CNc1ccccc1Nc1cc2c(cc1O)[C@]13CCCC[C@@H]1[C@H](C2)NCC3 [Example 127, (+)-3-Hydroxy-2-(2-(methylamino)phenylamino)morphinan TFA salt]
CC50 at 24 h [1]: 1300 nM | EC50 [2]: 62.1 nM

Oc1ccc(F)cc1Nc1cc2c(cc1O)[C@]13CCCC[C@@H]1[C@H](C2)NCC3 [Example 56, (+)-2-(5-Fluoro-2-hydroxyphenylamino)-3-hydroxymorphinan TFA salt]
CC50 at 24 h [1]: 12600 nM | EC50 [2]: 354 nM

Oc1cc2c(cc1Nc1ccccc1)C[C@@H]1NCC[C@]23CCCC[C@H]13 [Example 30, (+)-3-Hydroxy-2-(phenylamino)morphinan TFA salt]
CC50 at 24 h [1]: 7790 nM | EC50 [2]: 35.8 nM

CC(C)(C)Nc1cc2c(cc1O)[C@]13CCCC[C@@H]1[C@H](C2)NCC3 [Example 20, (+)-2-(tert-Butylamino)-3-hydroxymorphinan TFA salt]
CC50 at 24 h [1]: > 100000 nM | EC50 [2]: 423 nM

Oc1cc2c(cc1Nc1ccc(F)cc1)C[C@@H]1NCC[C@]23CCCC[C@H]13 [Example 29, (+)-2-(4-Fluorophenylamino)-3-hydroxymorphinan TFA salt]
CC50 at 24 h [1]: 19900 nM | EC50 [2]: 33.5 nM

Oc1cc2c(cc1N1CCCC1)C[C@@H]1NCC[C@]23CCCC[C@H]13 [Example 22, (+)-3-Hydroxy-2-(pyrrolidin-1-yl)morphinan TFA salt]
CC50 at 24 h [1]: 80500 nM | EC50 [2]: 638 nM

Oc1cc2c(cc1Nc1ccccc1Cc1ccccc1)C[C@@H]1NCC[C@]23CCCC[C@H]13 [Example 62, (+)-2-(2-Benzylphenylamino)-3-hydroxymorphinan TFA salt]
CC50 at 24 h [1]: 1600 nM | EC50 [2]: 52.4 nM

CCCCNC(=O)Nc1ccccc1Nc1cc2c(cc1O)[C@]13CCCC[C@@H]1[C@H](C2)NCC3 [Example 121, (+)-2-(2-(Butylureido)phenylamino)-3-hydroxymorphinan TFA salt]
CC50 at 24 h [1]: 23100 nM | EC50 [2]: > 100000 nM
